Measured values taken from ChEMBL document CHEMBL2346513, “Synthesis and evaluation of methylsulfonylnitrobenzamides (MSNBAs) as inhibitors of the thyroid hormone receptor-coactivator interaction” (Bioorg Med Chem Lett, 2013).

Experiments:
[1] = target: Thyroid hormone receptor (Homo sapiens) (UniProt P10827+P10828); assay: Inhibition of thyroid hormone receptor-mediated PEPCK gene transcription in thyroid hormone treated human HepG2 cells by RT-PCR analysis; type: cell-based
HepG2 = assay: Cytotoxicity against human HepG2 cells assessed as ATP level after 72 hrs by CellTiter-Glo assay; type: cell-based; conditions: HepG2, 72 h
Vitamin D3 receptor = target: T1, Vitamin D3 receptor (Homo sapiens, UniProt P11473); assay: Inhibition of VDR (unknown origin) interaction to SRC2-3 peptide by fluorescence polarization assay
T1 sequence (P11473 whole entry): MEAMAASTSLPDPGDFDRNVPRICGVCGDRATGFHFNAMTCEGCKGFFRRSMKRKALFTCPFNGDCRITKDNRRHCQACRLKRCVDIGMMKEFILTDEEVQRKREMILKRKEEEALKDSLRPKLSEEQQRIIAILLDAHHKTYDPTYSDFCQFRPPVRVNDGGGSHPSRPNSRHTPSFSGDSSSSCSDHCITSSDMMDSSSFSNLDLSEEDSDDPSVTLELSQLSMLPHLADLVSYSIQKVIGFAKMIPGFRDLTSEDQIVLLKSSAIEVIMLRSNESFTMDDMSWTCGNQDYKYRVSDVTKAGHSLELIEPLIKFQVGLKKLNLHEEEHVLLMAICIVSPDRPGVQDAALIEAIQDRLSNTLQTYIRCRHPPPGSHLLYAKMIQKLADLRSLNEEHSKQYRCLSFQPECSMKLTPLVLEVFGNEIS

[2] = target: T2, Thyroid hormone receptor alpha (Homo sapiens, UniProt P10827); assay: Inhibition of TRalpha-LBD (unknown origin) interaction to texas red-labeled SRC2-2 peptide by fluorescence polarization assay
T2 sequence (P10827 whole entry): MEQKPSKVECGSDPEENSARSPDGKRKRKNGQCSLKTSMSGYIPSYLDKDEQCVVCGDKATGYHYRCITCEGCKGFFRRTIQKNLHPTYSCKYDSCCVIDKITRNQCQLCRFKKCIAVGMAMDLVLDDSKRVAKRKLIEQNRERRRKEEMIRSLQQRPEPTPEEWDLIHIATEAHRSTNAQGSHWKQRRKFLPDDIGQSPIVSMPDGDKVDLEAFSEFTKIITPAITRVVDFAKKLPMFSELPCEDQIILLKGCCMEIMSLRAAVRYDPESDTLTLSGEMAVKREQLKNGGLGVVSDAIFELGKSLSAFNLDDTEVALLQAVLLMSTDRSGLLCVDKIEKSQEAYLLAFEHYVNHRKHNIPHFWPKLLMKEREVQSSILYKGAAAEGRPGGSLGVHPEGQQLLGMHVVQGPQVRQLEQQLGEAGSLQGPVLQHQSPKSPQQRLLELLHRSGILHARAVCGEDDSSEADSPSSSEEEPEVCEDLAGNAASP

[3] = target: T3, Thyroid hormone receptor beta (Homo sapiens, UniProt P10828); assay: Inhibition of TRbeta-LBD (unknown origin) interaction to texas red-labeled SRC2-2 peptide by fluorescence polarization assay
T3 sequence (P10828 whole entry): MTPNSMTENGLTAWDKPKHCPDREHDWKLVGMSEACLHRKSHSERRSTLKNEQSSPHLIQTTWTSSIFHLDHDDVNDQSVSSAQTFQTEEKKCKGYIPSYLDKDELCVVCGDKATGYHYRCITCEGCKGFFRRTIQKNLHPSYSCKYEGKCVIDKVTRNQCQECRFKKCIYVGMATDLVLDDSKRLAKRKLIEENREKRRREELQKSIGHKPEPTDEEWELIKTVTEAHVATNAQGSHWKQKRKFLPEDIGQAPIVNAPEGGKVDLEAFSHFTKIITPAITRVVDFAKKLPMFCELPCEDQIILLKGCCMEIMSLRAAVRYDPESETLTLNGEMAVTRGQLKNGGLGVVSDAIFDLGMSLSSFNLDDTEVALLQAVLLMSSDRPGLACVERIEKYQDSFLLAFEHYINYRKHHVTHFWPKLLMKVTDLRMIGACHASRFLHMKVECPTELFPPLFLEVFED

CS(=O)(=O)c1ccc(C(=O)NCC(=O)N(Cc2ccccc2)Cc2ccccc2)cc1[N+](=O)[O-]
inhibition [1]: Dose-dependent effect | EC50 (HepG2): 11.9 µM | IC50 (Vitamin D3 receptor): > 60 µM | IC50 [2]: 1.7 µM | IC50 [3]: 3.6 µM

CN(Cc1ccccc1F)C(=O)C1CCN(C(=O)c2ccc(S(C)(=O)=O)c([N+](=O)[O-])c2)CC1
EC50 (HepG2): > 27 µM | IC50 (Vitamin D3 receptor): > 60 µM | IC50 [2]: > 60 µM | IC50 [3]: > 60 µM

CS(=O)(=O)c1ccc(C(=O)NCCCC(=O)N2Cc3ccccc3C2)cc1[N+](=O)[O-]
EC50 (HepG2): > 27 µM | IC50 (Vitamin D3 receptor): > 60 µM | IC50 [2]: > 60 µM | IC50 [3]: > 60 µM

CCCN(C(=O)CNC(=O)c1ccc(S(C)(=O)=O)c([N+](=O)[O-])c1)c1ccccc1
EC50 (HepG2): > 27 µM | IC50 (Vitamin D3 receptor): > 60 µM | IC50 [2]: 1.9 µM | IC50 [3]: 6.6 µM

CS(=O)(=O)c1ccc(C(=O)NCCCC(=O)N(Cc2ccccc2)Cc2ccccc2)cc1[N+](=O)[O-]
EC50 (HepG2): > 27 µM | IC50 (Vitamin D3 receptor): > 60 µM | IC50 [2]: 29 µM | IC50 [3]: 59 µM

CS(=O)(=O)c1ccc(C(=O)N2CCC(C(=O)N3CCN(c4ccc(F)cc4)CC3)CC2)cc1[N+](=O)[O-]
EC50 (HepG2): > 27 µM | IC50 (Vitamin D3 receptor): > 60 µM | IC50 [2]: > 60 µM | IC50 [3]: > 60 µM

CS(=O)(=O)c1ccc(C(=O)NCCC(=O)N2CCN(c3ccc(C(F)(F)F)cc3)CC2)cc1[N+](=O)[O-]
EC50 (HepG2): > 27 µM | IC50 (Vitamin D3 receptor): > 60 µM | IC50 [2]: > 60 µM | IC50 [3]: > 60 µM

CS(=O)(=O)c1ccc(C(=O)NCCC(=O)N2CCN(c3ccc(F)cc3)CC2)cc1[N+](=O)[O-]
EC50 (HepG2): > 27 µM | IC50 (Vitamin D3 receptor): > 60 µM | IC50 [2]: > 60 µM | IC50 [3]: > 60 µM

CS(=O)(=O)c1ccc(C(=O)N2CCC(C(=O)N3CCN(c4ccccc4)CC3)CC2)cc1[N+](=O)[O-]
EC50 (HepG2): > 27 µM | IC50 (Vitamin D3 receptor): > 60 µM | IC50 [2]: > 60 µM | IC50 [3]: > 60 µM

CS(=O)(=O)c1ccc(C(=O)NCC(=O)N2CCN(c3ccccc3F)CC2)cc1[N+](=O)[O-]
EC50 (HepG2): > 27 µM | IC50 (Vitamin D3 receptor): > 60 µM | IC50 [2]: > 60 µM | IC50 [3]: > 60 µM

CN(CC(=O)N1Cc2ccccc2C1)C(=O)c1ccc(S(C)(=O)=O)c([N+](=O)[O-])c1
EC50 (HepG2): > 27 µM | IC50 (Vitamin D3 receptor): > 60 µM | IC50 [2]: > 60 µM | IC50 [3]: > 60 µM

CN(C(=O)CCNC(=O)c1ccc(S(C)(=O)=O)c([N+](=O)[O-])c1)c1ccccc1
EC50 (HepG2): > 27 µM | IC50 (Vitamin D3 receptor): > 60 µM | IC50 [2]: 37 µM | IC50 [3]: > 60 µM

CS(=O)(=O)c1ccc(C(=O)N2CCC(C(=O)N3CCCCC3)CC2)cc1[N+](=O)[O-]
EC50 (HepG2): > 27 µM | IC50 (Vitamin D3 receptor): > 60 µM | IC50 [2]: > 60 µM | IC50 [3]: > 60 µM

CS(=O)(=O)c1ccc(C(=O)NCCCC(=O)N2CCN(c3ccc(C(F)(F)F)cc3)CC2)cc1[N+](=O)[O-]
EC50 (HepG2): 13 µM | IC50 (Vitamin D3 receptor): 7 µM | IC50 [2]: > 60 µM | IC50 [3]: > 60 µM

CC1Cc2ccccc2N1C(=O)C1CCN(C(=O)c2ccc(S(C)(=O)=O)c([N+](=O)[O-])c2)CC1 (stereo unspecified)
EC50 (HepG2): > 27 µM | IC50 (Vitamin D3 receptor): > 60 µM | IC50 [2]: > 60 µM | IC50 [3]: > 60 µM
